Laboratory results as given in ChEMBL document CHEMBL1201862, “PubChem BioAssay data set” (2004).
Activity calls are given as the source filed them.

Legend:
[1] = molecular target: Cytochrome P450 2D6 (Homo sapiens, UniProt P10635);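 further: CYP2D6 member of a cytochrome P450 panel assay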
[2] = molecular target: Cytochrome P450 2C9 (Homo sapiens, UniProt P11712)
[3] = molecular target: Cytochrome P450 2C19 (Homo sapiens, UniProt P33261); assay: Cytochrome panel assay with activity outcomes. Panel member name: p450-cyp2c19 Compounds with AC50 equal or less than 10 uM are considered active; format: functional
[4] = NIH3T3 cell viability loss – ATP luminescence, mouse fibroblasts, counter-screen, dose response (AID 2010); format: functional, cell-based;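 further: cells exposed to compound for about 90 hours before reading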
[5] = Trypanosoma cruzi growth suppression in host cells – NIH3T3 host cells, beta-gal luminescence, confirmation (AID 2044); format: functional, cell-based;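 further: intracellular parasites grown in NIH/3T3 mouse fibroblasts as host cells; luminescent beta-galactosidase reporter signal from transgenic T. cruzi replicating inside host cells; inhibitors lower the luminescence signal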
[6] = molecular target: T1, Streptokinase A (Streptococcus pyogenes serotype M1, UniProt P10520); assay: viability-normalized secreted streptokinase activity reduction – plasminogen activation absorbance, OD405, dose response (AID 1914); format: functional, Streptococcus pyogenes M1 GAS;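 further: secreted streptokinase activity via plasminogen activation per viability signal from cell pellet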
T1 sequence (P10520 whole entry): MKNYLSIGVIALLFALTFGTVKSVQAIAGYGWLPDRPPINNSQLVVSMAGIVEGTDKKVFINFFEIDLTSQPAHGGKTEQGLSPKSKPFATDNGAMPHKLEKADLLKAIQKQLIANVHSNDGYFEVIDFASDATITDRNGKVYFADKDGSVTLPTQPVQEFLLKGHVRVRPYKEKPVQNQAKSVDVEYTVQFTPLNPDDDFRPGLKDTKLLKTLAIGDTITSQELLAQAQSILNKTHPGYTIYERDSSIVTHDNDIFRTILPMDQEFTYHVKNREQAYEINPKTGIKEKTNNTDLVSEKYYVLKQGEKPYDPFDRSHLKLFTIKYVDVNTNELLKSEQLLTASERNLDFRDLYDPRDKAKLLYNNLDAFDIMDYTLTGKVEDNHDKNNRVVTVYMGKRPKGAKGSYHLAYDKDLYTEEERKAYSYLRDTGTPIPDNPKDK

[7] = system: Streptococcus sp. 'group A'; assay: Streptococcus pyogenes SK(-)GAS viability under kanamycin – luminescence, BacTiterGlo, confirmation, counter-screen for streptokinase expression inhibitor project, dose response (AID 1900); format: functional, organism-based
[8] = system: Streptococcus; assay: GAS UMAA2166 growth inhibition – luminescence, BacTiterGlo, counter-screen for streptokinase expression inhibitor project, dose response (AID 1915); format: functional, organism-based;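 further: potency for reduction of bacterial viability or growth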
[9] = molecular target: Cytochrome P450 3A4 (Homo sapiens, UniProt P08684);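 further: CYP3A4 tested as one member of a cytochrome P450 panel screen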
Chain of Cytochrome P450 3A4 (P08684 whole entry): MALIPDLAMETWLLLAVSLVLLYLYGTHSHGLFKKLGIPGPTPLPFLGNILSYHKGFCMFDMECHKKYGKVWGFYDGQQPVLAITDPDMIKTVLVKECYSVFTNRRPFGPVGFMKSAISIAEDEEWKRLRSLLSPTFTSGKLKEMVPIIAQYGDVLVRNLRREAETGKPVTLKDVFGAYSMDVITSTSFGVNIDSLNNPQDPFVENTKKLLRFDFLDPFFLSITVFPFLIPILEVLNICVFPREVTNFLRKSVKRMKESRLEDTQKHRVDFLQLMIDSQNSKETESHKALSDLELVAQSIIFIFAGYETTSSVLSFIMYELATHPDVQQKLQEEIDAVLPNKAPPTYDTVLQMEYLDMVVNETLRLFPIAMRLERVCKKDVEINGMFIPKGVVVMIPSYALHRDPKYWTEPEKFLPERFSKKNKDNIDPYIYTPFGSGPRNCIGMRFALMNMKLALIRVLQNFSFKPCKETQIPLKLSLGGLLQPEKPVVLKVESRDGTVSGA

Chain of Cytochrome P450 2D6 (P10635 whole entry): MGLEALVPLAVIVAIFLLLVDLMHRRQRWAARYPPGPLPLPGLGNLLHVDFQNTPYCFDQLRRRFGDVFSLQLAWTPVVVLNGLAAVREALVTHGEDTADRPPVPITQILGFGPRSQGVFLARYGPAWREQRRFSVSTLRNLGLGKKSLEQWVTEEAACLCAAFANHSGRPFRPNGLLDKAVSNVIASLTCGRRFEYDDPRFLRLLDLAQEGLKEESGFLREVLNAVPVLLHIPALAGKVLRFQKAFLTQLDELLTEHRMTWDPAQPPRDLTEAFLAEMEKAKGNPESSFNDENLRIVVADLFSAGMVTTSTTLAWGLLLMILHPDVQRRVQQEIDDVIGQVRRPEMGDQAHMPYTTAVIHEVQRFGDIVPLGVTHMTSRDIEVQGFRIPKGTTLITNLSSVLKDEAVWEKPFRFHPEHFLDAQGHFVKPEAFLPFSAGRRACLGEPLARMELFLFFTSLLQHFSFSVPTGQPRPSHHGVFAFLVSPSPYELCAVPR
Chain of Cytochrome P450 2C9 (P11712 whole entry): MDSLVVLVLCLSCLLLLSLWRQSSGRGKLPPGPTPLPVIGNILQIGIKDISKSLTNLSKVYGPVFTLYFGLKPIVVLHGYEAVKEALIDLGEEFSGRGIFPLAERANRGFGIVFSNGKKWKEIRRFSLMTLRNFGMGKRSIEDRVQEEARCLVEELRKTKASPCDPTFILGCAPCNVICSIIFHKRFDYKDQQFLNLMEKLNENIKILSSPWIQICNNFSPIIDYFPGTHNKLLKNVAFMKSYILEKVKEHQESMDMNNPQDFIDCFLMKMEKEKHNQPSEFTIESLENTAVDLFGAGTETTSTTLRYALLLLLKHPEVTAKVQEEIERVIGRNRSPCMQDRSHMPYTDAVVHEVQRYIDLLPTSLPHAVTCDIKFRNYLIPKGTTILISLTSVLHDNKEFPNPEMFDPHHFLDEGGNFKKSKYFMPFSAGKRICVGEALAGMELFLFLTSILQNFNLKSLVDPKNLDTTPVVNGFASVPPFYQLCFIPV
Chain of Cytochrome P450 2C19 (P33261 whole entry): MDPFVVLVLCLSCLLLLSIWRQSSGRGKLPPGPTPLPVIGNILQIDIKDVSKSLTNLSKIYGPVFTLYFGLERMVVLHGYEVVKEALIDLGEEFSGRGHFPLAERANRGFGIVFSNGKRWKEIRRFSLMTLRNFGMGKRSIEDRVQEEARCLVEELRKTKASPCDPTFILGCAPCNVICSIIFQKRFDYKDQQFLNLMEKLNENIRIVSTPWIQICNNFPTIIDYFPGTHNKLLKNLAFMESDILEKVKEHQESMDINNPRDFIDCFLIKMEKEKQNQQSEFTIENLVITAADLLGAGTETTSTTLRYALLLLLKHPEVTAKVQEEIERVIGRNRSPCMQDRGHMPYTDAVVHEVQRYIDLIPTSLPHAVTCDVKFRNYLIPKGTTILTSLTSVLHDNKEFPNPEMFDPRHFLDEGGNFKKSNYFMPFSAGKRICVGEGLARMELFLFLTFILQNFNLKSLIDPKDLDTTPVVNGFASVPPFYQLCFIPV

SMILES: CCC(C)(C)NC(=NC#N)Nc1cccnc1
- AC50 [1]: 39.8 µM (inconclusive)

SMILES: Cc1ccc2c(c1)C(=O)[C@@]1(O)CCN(c3ccccc3)C1=N2
- AC50 [1]: 39.8 µM (inconclusive)

SMILES: COc1cccc(Cn2c(=O)c(-c3cccs3)nc3cnc(N4CCOCC4)nc32)c1
- AC50 [2]: 25.1 µM (inconclusive)

SMILES: Cn1cccc1C(=O)N1CCC[C@@]2(CCN(Cc3cc(C(F)(F)F)cc(C(F)(F)F)c3)C2)C1
- AC50 [2]: 39.8 µM (inconclusive)
- AC50 ([3]; read-out: AC50): 39.8 µM (inconclusive)

SMILES: CCN(CC)S(=O)(=O)c1cccc(C(=O)/C=C2/N(C)c3ccccc3C2(C)C)c1
- EC50 [4]: > 60 µM (inconclusive)
- EC50 [5]: 0.739 µM (active)

SMILES: Cc1cc(Nc2ccccc2)nn1C(=O)c1ccc(Br)cc1
- EC50 [6]: > 150 µM (not active)
- EC50 [7]: 20.6 µM (active)
- EC50 [8]: > 150 µM (not active)

SMILES: COc1ccc(COc2cc(-c3cccc(OC)c3)nc3ccc(NC(C)=O)cc23)cc1
- EC50 [4]: > 60 µM (not active)
- EC50 [5]: 0.728 µM (active)

SMILES: C=CCn1c(=O)c(C(=O)NCc2ccccc2)c(O)c2ccccc21
- EC50 [6]: 42.2 µM (active)
- EC50 [7]: 20.4 µM (active)
- EC50 [8]: > 150 µM (not active)

SMILES: O=C(C[C@H](c1ccccc1)c1c(O)c2ccccc2oc1=O)c1ccccc1
- AC50 [9]: 3.16 µM (inconclusive)

SMILES: CC(c1ccccc1C(O)c1ccccc1)N(C)C (stereo not drawn)
- AC50 [2]: 0.0355 µM (inconclusive)

SMILES: CCCCSc1ccc2nc(-c3ccc(C#N)cc3)cn2c1
- EC50 [6]: > 150 µM (not active)
- EC50 [7]: 13.1 µM (active)
- EC50 [8]: 14.4 µM (active)

SMILES: COc1ccc(COC2OC[C@]3(C)[C@H]4C5=C(CN3C(=O)OC(C)(C)C)[C@H](C)C(CO)C(CO)C5CC[C@@H]24)cc1 (stereo partly drawn)
- AC50 ([3]; read-out: AC50): 39.8 µM (inconclusive)

SMILES: COc1cc(-c2cc(C(=O)Nc3ccc(S(=O)(=O)NCc4ccco4)cc3)c3ccccc3n2)cc(OC)c1OC
- EC50 [4]: > 60 µM (not active)
- EC50 [5]: 1.62 µM (active)

SMILES: COc1ccc(S(=O)(=O)Nc2ccc(F)cc2)c(C)c1C
- AC50 [1]: 0.447 µM (inconclusive)

SMILES: CCN(CC)S(=O)(=O)c1ccc(N2CCOCC2)c(NC(=O)C2CSC3(C)CCC(=O)N23)c1 (stereo not drawn)
- EC50 [6]: > 150 µM (not active)
- EC50 [7]: > 150 µM (not active)
- EC50 [8]: > 150 µM (not active)

SMILES: CC1(C)CC(=O)C2=C(C1)Oc1nc3ccccc3cc1C2C(C#N)C#N (stereo not drawn)
- AC50 [1]: 0.112 µM (inconclusive)

SMILES: COc1ccc(S(=O)(=O)NCc2ccc(C(=O)N3CCN(c4ccccn4)CC3)cc2)cc1
- AC50 ([3]; read-out: AC50): 7.94 µM (inconclusive)

SMILES: O=C(Nc1ccccc1)N1CCC2(CC1)CCN(S(=O)(=O)c1ccccc1)CC2
- AC50 [1]: 39.8 µM (inconclusive)

SMILES: CN(C)c1nc(N)ncc1-c1ccc(Oc2ccccc2)cc1
- EC50 [4]: > 60 µM (not active)
- EC50 [5]: 0.231 µM (active)

SMILES: COc1ccc(NC(=O)CN(C)C(=O)/C=C/c2cn(-c3ccccc3)nc2-c2ccc(C)cc2)cc1
- EC50 [6]: > 150 µM (not active)
- EC50 [4]: > 60 µM (not active)
- EC50 [5]: 2.17 µM (active)
- EC50 [8]: 114 µM (active)

SMILES: N[C@H](Cc1ccc2oc3cc(=O)c4ccccc4c-3nc2c1)C(=O)O
- AC50 [9]: 3.98 µM (inconclusive)

SMILES: CC(=O)N1CCc2cc(S(=O)(=O)N3CCc4ccccc43)ccc21
- EC50 [6]: > 150 µM (not active)
- EC50 [7]: > 150 µM (not active)
- EC50 [8]: > 150 µM (not active)

SMILES: O=C(CCN1C(=O)/C(=C/c2ccccc2)SC1=S)NCCCN1CCOCC1
- EC50 [4]: 8.78 µM (active)
- EC50 [5]: 2.62 µM (active)

SMILES: Cc1ccc(S(=O)(=O)N(CC(=O)Nc2cccc(N(C)S(C)(=O)=O)c2)c2ccc(Cl)c(Cl)c2)cc1
- EC50 [4]: > 60 µM (not active)
- EC50 [5]: 2.14 µM (active)

SMILES: Cc1nc2cnc(N3CCNCC3)nc2n(CCc2ccccc2)c1=O
- AC50 [2]: 39.8 µM (inconclusive)

SMILES: CO[C@@H]1COC(=O)[C@@H](CCSC)NC(=O)C/C=C\[C@@H](C)COC(=O)CCC[C@H]1C
- AC50 [9]: 3.98 µM (inconclusive)

SMILES: CCOc1ccc(CC(C(N)=O)C(N)=O)cc1CN(C)C
- AC50 ([3]; read-out: AC50): 22.4 µM (inconclusive)
- AC50 [1]: 17.8 µM (inconclusive)

SMILES: O=C1c2ccccc2CCC12N=NCC2c1ccc(Br)cc1 (stereo not drawn)
- EC50 [6]: 23.7 µM (active)
- EC50 [7]: 22.6 µM (active)
- EC50 [8]: > 150 µM (not active)

SMILES: c1ccc2c(c1)C(=NC1CCCCC1)N=C2NC1CCCCC1
- EC50 [4]: > 60 µM (not active)
- EC50 [5]: 1.27 µM (active)

SMILES: O=P(O)(CCc1ccccc1)C(O)c1ccccc1 (stereo not drawn)
- AC50 [1]: 35.5 µM (inconclusive)

SMILES: COc1ccc(CCNC(=O)c2cccc(NS(=O)(=O)c3ccccc3F)c2)cc1OC
- EC50 [6]: > 150 µM (not active)
- EC50 [7]: > 150 µM (not active)
- EC50 [8]: > 150 µM (not active)

SMILES: CC1=C(C#N)c2nc(N)c(C#N)c(C)c2/C1=C\c1ccc(C)cc1
- EC50 [6]: 12.3 µM (active)
- EC50 [7]: 4.38 µM (active)
- EC50 [8]: > 150 µM (not active)

SMILES: CN(C)C(=O)CN(c1ccc2c(c1)OCO2)S(C)(=O)=O
- AC50 [2]: 0.178 µM (inconclusive)

SMILES: Cc1ccc(OCCn2cnc3cc([N+](=O)[O-])ccc3c2=O)cc1
- EC50 [4]: > 30 µM (not active)
- EC50 [5]: 0.366 µM (active)

SMILES: OC[C@@H]1O[C@@H](O)[C@H](/N=C\c2ccc3c(c2)OCO3)[C@@H](O)[C@@H]1O
- AC50 [3]: inconclusive

SMILES: COCC(=O)N1CCC2(CCCN(c3ccncc3)C2)CC1
- AC50 [9]: 25.1 µM (inconclusive)

SMILES: N[C@H]1C[C@H]1c1ccccc1
- AC50 [2]: 12.6 µM (inconclusive)
- AC50 [1]: 12.6 µM (inconclusive)

SMILES: CN(C)C(=O)c1ccc(-c2cncnc2NCc2cccs2)cc1
- AC50 [1]: 39.8 µM (inconclusive)

SMILES: COCCn1c(C(=O)N2CCCC2)cc2c1C[C@H]1CN(C(=O)c3ccccc3)[C@@](Cc3ccc(OC)cc3)(C(=O)OC)[C@@H]21
- AC50 [2]: 39.8 µM (inconclusive)
- AC50 ([3]; read-out: AC50): 39.8 µM (inconclusive)

SMILES: C[C@@H](C[C@@H](O)[C@H](O)C(C)(C)O)[C@@H]1CC[C@]2(C)C3=CC[C@H]4C(C)(C)C(=O)CC[C@]4(C)[C@H]3CC[C@@]12C
- EC50 [6]: > 150 µM (not active)
- EC50 [7]: 3.13 µM (active)
- EC50 [8]: 5.03 µM (active)

SMILES: COc1ccc(NC(=O)CCNS(=O)(=O)c2ccc3c(c2)CCC(=O)N3)cc1
- AC50 [2]: 4.47 µM (inconclusive)

SMILES: COc1cc(C(=O)OC(C)C(=O)Nc2ccc3c(c2)OCO3)ccc1OCc1c(C)noc1C (stereo not drawn)
- AC50 [1]: 28.2 µM (inconclusive)

SMILES: CN(C)c1ncnc2ccc(-c3ccccc3C(F)(F)F)cc12
- AC50 [9]: 10 µM (inconclusive)
- AC50 [1]: 15.8 µM (inconclusive)

SMILES: COc1ccc2c3ncn(CCc4c[nH]cn4)c(O)c-3nc2c1
- EC50 [6]: > 150 µM (not active)
- EC50 [7]: > 150 µM (not active)
- EC50 [8]: > 150 µM (not active)

SMILES: O=S(=O)(c1ccccc1)N1CCC2(CCCN(Cc3nccs3)C2)CC1
- AC50 [3]: inconclusive

SMILES: COc1ccc(-n2c(=O)c(-c3cccc(F)c3)nc3cncnc32)cc1
- AC50 ([3]; read-out: AC50): 31.6 µM (inconclusive)

SMILES: Cc1nc2sccc2c(=O)n1-c1ccccc1Cl
- AC50 [1]: 14.1 µM (inconclusive)

SMILES: O=[N+]([O-])c1cc(F)c(N2CCOCC2)cc1N1CCCCC1
- AC50 [9]: 17.8 µM (inconclusive)

SMILES: COc1ccc(C(=O)C2CCCN(Cc3c(C)[nH]c4ccccc34)C2)c(OC)c1 (stereo not drawn)
- EC50 [4]: > 60 µM (not active)
- EC50 [5]: 0.299 µM (active)

SMILES: C=CCc1cc(/C=C2/NC(=O)N(CC)C2=O)cc(OCC)c1OCc1ccc(C(=O)O)cc1
- EC50 [6]: > 150 µM (not active)
- EC50 [7]: 12.5 µM (active)
- EC50 [8]: 105 µM (active)

SMILES: COc1ccc2c(c1)-c1c(sn(-c3ccc(OC)c(OC)c3)c1=S)C(C)(C)N2
- AC50 [2]: 5.01 µM (inconclusive)

SMILES: O=C(CSc1ccc(Cl)cc1)NC1=NN(c2ccccc2)C(=O)C1
- EC50 [6]: 9.33 µM (inconclusive)
- EC50 [7]: 7.47 µM (active)
- EC50 [8]: 7.17 µM (active)

SMILES: Cc1cc(NCCO)c2ccccc2n1
- AC50 ([3]; read-out: AC50): 39.8 µM (inconclusive)

SMILES: CC(C)C(NC(=O)OCc1ccccc1)C(=O)O (stereo not drawn)
- AC50 [2]: 11.2 µM (inconclusive)

SMILES: NC(=O)C1(N2CCCCC2)CCN(C(=O)c2ccc(-n3cnnn3)cc2)CC1
- AC50 [1]: 1.58 µM (inconclusive)

SMILES: Cc1ccc(C(=O)/C=C(\O)C(=O)NC23CC4CC(CC(C4)C2)C3)cc1
- EC50 [6]: > 150 µM (not active)
- EC50 [7]: 4.07 µM (active)
- EC50 [8]: > 150 µM (not active)

SMILES: O/N=C/c1ccccc1OCc1ccc(Cl)cc1
- AC50 ([3]; read-out: AC50): 2.82 µM (inconclusive)
- AC50 [1]: 22.4 µM (inconclusive)

SMILES: O=C(N/N=C/c1ccco1)c1ccccn1
- AC50 [3]: inconclusive

SMILES: O=C(CN(c1ccc(Cl)c(C(F)(F)F)c1)S(=O)(=O)c1ccccc1)N/N=C/c1cccc2c1OCCO2
- EC50 [6]: 32.9 µM (active)
- EC50 [7]: 8.38 µM (active)
- EC50 [8]: 95.3 µM (active)

SMILES: O=C(CN1CCCCCCC1)N/N=C/c1ccc([N+](=O)[O-])o1
- EC50 [4]: > 60 µM (not active)
- EC50 [5]: 1.34 µM (active)

SMILES: O=S(=O)(c1cnccc1N1CCN(/N=C/c2ccccc2)CC1)N1CCCCC1
- AC50 [1]: 25.1 µM (inconclusive)
